Test results taken from patent publication US9067937B2 (priority 2012, dated 2015).
Structures can show the parent of a compound that is named as a salt.

Tests used:
[1] = biological target: MELK (Homo sapiens, UniProt Q14680); assay: Kinase assay (IMAP fluorescence polarization, FITC-labeled histone H3 peptide); assay type: biochemical; settings: 50 micro-M ATP
In short: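 Kinase (0.8 ng/μL) reacted with 100 nM FITC-histone H3 peptide and 50 μM ATP in 20 mM HEPES, 0.3 mM MgCl2, 2 mM DTT, 0.01% Tween-20, pH 7.4, for 1 hour at room temperature. Phosphorylation read by IMAP fluorescence polarization after adding binding solution; IC50 from four-parameter fit.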

[2] = system: 22Rv1 cells; assay: Cell-based assay, anti-proliferative activity (Cell Counting Kit-8, 72 hours); parameters: species or system human; settings: Homo sapiens, 22Rv1, 72 h, read-out: IC50 (μM) (22Rvl)
In short: (§1)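 Cells seeded at 2,000–3,000 cells/well and exposed to candidate MELK inhibitors for 72 hours; growth measured with Cell Counting Kit-8. IC50 values calculated from the growth read-out.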

[3] = system: A549 cells; assay: as above; parameters: species or system human; settings: Homo sapiens, A549, 72 h, read-out: IC50 (μM) (A549)
In short: as §1

[4] = system: DU4475 cells; assay: as above; parameters: species or system human; settings: Homo sapiens, DU-4475, 72 h, read-out: IC50 (μM) (DU4475)
In short: as §1

[5] = system: T47D cells; assay: as above; parameters: species or system human; settings: Homo sapiens, T47D, 72 h, read-out: IC50 (μM) (T47D)
In short: as §1

[6] = system: HT1197 cells; assay: Cell-based assay, anti-proliferative activity, MELK-negative control (Cell Counting Kit-8, 72 hours); parameters: species or system human; settings: Homo sapiens, HT1197, 72 h, read-out: IC50 (μM) (HTll97)
Method: 100 micro-L of cell suspension was seeded onto 96-well microtiter plate (ViewPlate-96FTC, PerkinElmer). The initial cell concentration of 22Rv1, T47D, A549, DU4475, and HT1197 were 3,000 cells/well, 2,000 cells/well and 2,500 cells/well, respectively. Cellular growth was determined using Cell Counting Kit-8 (DOJINDO) at 72 hours after the exposure of the candidate inhibitors. […] Accurate IC50 values were calculated as described previously.

Chain of MELK (Q14680 whole entry, looked up): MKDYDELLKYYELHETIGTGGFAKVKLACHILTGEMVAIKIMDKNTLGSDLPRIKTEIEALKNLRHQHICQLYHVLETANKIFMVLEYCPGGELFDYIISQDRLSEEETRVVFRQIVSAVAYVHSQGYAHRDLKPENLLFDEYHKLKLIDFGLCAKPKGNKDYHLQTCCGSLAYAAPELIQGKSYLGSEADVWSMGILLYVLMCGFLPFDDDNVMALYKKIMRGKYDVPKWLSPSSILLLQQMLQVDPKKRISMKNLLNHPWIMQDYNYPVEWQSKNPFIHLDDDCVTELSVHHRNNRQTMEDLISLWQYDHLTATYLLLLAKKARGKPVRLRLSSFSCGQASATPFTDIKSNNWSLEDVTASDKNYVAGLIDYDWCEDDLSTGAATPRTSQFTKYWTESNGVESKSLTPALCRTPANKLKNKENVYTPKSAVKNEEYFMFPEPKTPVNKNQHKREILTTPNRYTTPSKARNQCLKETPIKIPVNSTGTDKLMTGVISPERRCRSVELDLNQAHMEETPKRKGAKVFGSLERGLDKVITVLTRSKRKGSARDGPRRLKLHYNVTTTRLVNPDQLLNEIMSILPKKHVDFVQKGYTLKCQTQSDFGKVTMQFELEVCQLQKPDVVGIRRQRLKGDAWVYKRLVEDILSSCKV

In the case of `CC(=O)c1cnc2ccc(-c3cc(F)c(O)c(Cl)c3)nc2c1N[C@H]1CC[C@H](CN2CCN(C)CC2)CC1` [Example 68, 1-(6-(3-Chloro-5-fluoro-4-hydroxyphenyl)-4-{trans-4-[4-methylpiperazin-1-yl)methyl]-cyclohexylamino}-1,5-naphthyridin-3-yl)ethanone trihydrochloride], the IC50 [1] was 0.0026 µM, the IC50 [2] was 0.039 µM and the IC50 [3] was 0.026 µM. It also gave an IC50 [4] of 0.012 µM, an IC50 [5] of 0.012 µM and an IC50 [6] of 0.11 µM.
In the case of `CC(=O)c1cnc2ccc(-c3cc(F)c(O)c(Cl)c3)nc2c1N[C@H]1CC[C@H](NC(=O)C(N)C(C)C)CC1` (stereo partly drawn) [Example 69, N-(trans-4-{[3-Acetyl-6-(3-chloro-5-fluoro-4-hydroxyphenyl)-1,5-naphthyridin-4-yl]amino}-cyclohexyl)-2-amino-3-methylbutanamide dihydrochloride], the IC50 [1] was 0.0012 µM, the IC50 [2] was 0.025 µM and the IC50 [3] was 0.064 µM. For the same molecule, the IC50 [4] was 0.013 µM, the IC50 [5] was 0.007 µM and the IC50 [6] was 2.5 µM.
Molecule `CC(=O)c1cnc2ccc(-c3cc(Cl)c(O)c(Cl)c3)nc2c1N[C@H]1CC[C@H](CN2CCNCC2)CC1` [Example 70, 1-{6-(3,5-Dichloro-4-hydroxyphenyl)-4-[trans-4-(piperazin-1-ylmethyl)cyclohexylamino]-1,5-naphthyridin-3-yl}ethanone trihydrochloride] has an IC50 [1] of 0.0006 µM, an IC50 [2] of 0.031 µM and an IC50 [3] of 0.084 µM. The IC50 [4] was 0.011 µM, the IC50 [5] was 0.021 µM and the IC50 [6] was 3.9 µM.
For `CC(=O)c1cnc2ccc(-c3cc(Cl)c(O)c(Cl)c3)nc2c1Nc1ccc(N2CCC[C@H](N)C2)nc1` [Example 71, (S)-1-(4-{[6-(3-Aminopiperidin-1-yl)pyridin-3-yl]amino}-6-(3,5-dichloro-4-hydroxyphenyl)-1,5-naphthyridin-3-yl)ethanone trihydrochloride], the IC50 [1] was 0.0005 µM, the IC50 [2] was 0.014 µM and the IC50 [3] was 0.09 µM. It also gave an IC50 [4] of 0.008 µM, an IC50 [5] of 0.0074 µM and an IC50 [6] of 3.4 µM.
With `CC(=O)c1cnc2ccc(-c3cc(F)c(O)c(Cl)c3)nc2c1Nc1ccc(N2CCC[C@H](N)C2)nc1` [Example 72, (S)-1-(4-{[6-(3-Aminopiperidin-1-yl)pyridin-3-yl]amino}-6-(3-chloro-5-fluoro-4-hydroxy-phenyl)-1,5-naphthyridin-3-yl)ethanone trihydrochloride] the IC50 [1] was 0.0043 µM, the IC50 [2] was 0.014 µM and the IC50 [3] was 0.047 µM. For the same molecule, the IC50 [4] was 0.014 µM, the IC50 [5] was 0.0053 µM and the IC50 [6] was 1.2 µM.
Work on `CC(=O)c1cnc2ccc(-c3cc(Cl)c(O)c(Cl)c3)nc2c1N[C@H]1CC[C@H](NC(=O)C(C)N)CC1` (stereo partly drawn) [Example 73, N-{trans-4-[3-Acetyl-6-(3,5-dichloro-4-hydroxyphenyl)-1,5-naphthyridin-4-ylamino]-cyclohexyl}-2-aminopropanamide dihydrochloride] yielded an IC50 [1] of 0.0075 µM, an IC50 [2] of 0.027 µM and an IC50 [3] of 0.18 µM. For the same molecule, the IC50 [4] was 0.0043 µM, the IC50 [5] was 0.0086 µM and the IC50 [6] was 100 µM.
In the case of `CC(=O)c1cnc2ccc(-c3cc(F)c(O)c(Cl)c3)nc2c1N[C@H]1CC[C@H](NC(=O)C(C)N)CC1` (stereo partly drawn) [Example 74, N-{4-[3-Acetyl-6-(3-chloro-5-fluoro-4-hydroxyphenyl)-1,5-naphthyridin-trans-4-ylamino]-cyclohexyl}-2-aminopropanamide dihydrochloride], the IC50 [1] was 0.0026 µM, the IC50 [2] was 0.025 µM and the IC50 [3] was 0.13 µM. For the same molecule, the IC50 [4] was 0.0036 µM, the IC50 [5] was 0.0043 µM and the IC50 [6] was 100 µM.
Molecule `CC(=O)c1cnc2ccc(-c3cc(Cl)c(O)c(Cl)c3)nc2c1N[C@H]1CC[C@H](NC(=O)[C@@H]2CCCN2)CC1` [Example 75, (S)—N-{4-[3-Acetyl-6-(3,5-dichloro-4-hydroxyphenyl)-1,5-naphthyridin-trans-4-ylamino]-cyclohexyl}pyrrolidine-2-carboxamide dihydrochloride] has an IC50 [1] of 0.001 µM, an IC50 [2] of 0.099 µM and an IC50 [3] of 0.21 µM. For the same molecule, the IC50 [4] was 0.021 µM, the IC50 [5] was 0.036 µM and the IC50 [6] was 8.4 µM.
